From patent US20230364089A1, “COMPOUNDS AND COMPOSITIONS FOR THE TREATMENT OR PREVENTION OF PATHOLOGICAL CONDITIONS ASSOCIATED WITH EXCESS FIBRIN DEPOSITION AND/OR THROMBUS FORMATION” (Cereno Scientific AB, priority 2016, published 2023)
Where two headings read alike, the source gives them in different places.

Legend:
[1] = cited from earlier work
[2] = once daily (in healthy volunteers); cited from earlier work
[3] = tested on: cultured endothelial cells; test: PAI-1 mRNA / production in cultured endothelial cells after VPA treatment; type: cell-based; conditions: no decrease of PAI-1 mRNA levels, slight but significant increase
PAI-1 [4] = test: Plasma PAI-1 in in vivo model in mouse; conditions: in vivo model in mouse (unpublished data)
PAI-1 [5] = test: Proof-of-concept study 2: plasma PAI-1 before and after VPA in patients with a history of myocardial infarction; type: in vivo, human; conditions: midmorning; for reduction in circulating plasma PAI-1 levels: 16 male patients with history of myocardial infarction, valproic acid 500 mg (Ergenyl Retard) twice daily for 28 days on top of ordinary prescription, p=0.01
Procedure: (§1) The effects of VPA on PAI-1 were analysed in two different proof-of-concept studies in healthy subjects as well as in patients with manifest atherosclerotic disease. […] PAI-1 plasma levels were measured in the morning at the first day of the study as well as at the end of the treatment period with VPA (see example 2 for details on the PAI-1 analysis).
In the second study, 16 non-smoking white male patients, aged 50-80 years with a history of a myocardial infarction were included. On top of their ordinary prescription (beta-blocker, ACE-inhibitor, statin, aspirin) they were treated with valproic acid 500 mg (Ergenyl Retard, Sanofi), twice daily during 28 days.

PAI-1 [6] = conditions: in vivo model in pig (Svennerholm et al., PLoS One 2014); cited from earlier work
PAI-1 [7] = test: Example 2 intermediate endpoint study in patients with TIA/minor stroke: plasma PAI-1 and plasma valproic acid
Procedure: An intermediate endpoint proof-of-concept study is performed in patients with TIA/minor stroke investigated before and after treatment with Valproic acid. Valproic acid is administrated as an enteric-coated tablet with delayed absorption.
The study comprises 20 patients with TIA/minor stroke. Patients are investigated before and after oral treatment with 400 mg valproic acid once time daily at 11 pm for 2 weeks. Plasma PAI-1 levels and plasma concentrations of valproic acid is followed daily during the study period at the following time-points: 3 am, 6 am, 10 am, 16 pm, 22 pm PAI-1 levels are measured by commercially available ELISA-kits (Coaliza PAI-1, ChromogenixAB) and the plasma concentration of valproic acid an metabolites thereof is analyzed according to clinical routine at the Sahlgrenska University laboratory, Gothenburg, Sweden.

PAI-1 [8] = test: Proof-of-concept study 1: plasma PAI-1 before and after VPA in healthy subjects; type: in vivo, human
Procedure: as §1
In the first study, 10 healthy non-smoking white male subjects (with mean BMI of approximately 26), aged 50-70 years were included and treated with valproic acid 500 mg (Ergenyl Retard, Sanofi) twice daily during 14 days.

[9] = Example 3 clinical outcome study in high-risk patients: recurrent atherothrombotic events; type: in vivo, human; conditions: 400 mg valproic acid once daily at 11 pm, long-term, expected
Procedure: A clinical outcome study is performed in high-risk patients who have experienced a recent major atherothrombotic cardiovascular event (myocardial infarction or TIA/ischemic stroke) to investigate the preventive effect of valproic acid treatment on the risk for recurrent events. The annual risk for a recurrent atherothrombotic event in the investigated population is estimated to approximately 7%. […] The event rate is monitored by Kaplan-Meyer statistics. The primary efficacy endpoint is the composite measure of either mortality, or non-fatal myocardial infarction or ischemic stroke. The study is event-driven to a total of 180 events. […] Thus, the study is expected to confirm the clinical efficacy and feasibility of using valproic acid for secondary prevention of cardiovascular disease.

For `O=C(/C=C/c1cccc(S(=O)(=O)Nc2ccccc2)c1)NO` [Belinostat, (2E)-3-[3-(anilinosulfonyl)phenyl]-N-hydroxy-acrylamide], the MTD ([1]; bidaily) is given as 1000 mg bidaily.
For `CCN(CC)Cc1ccc2cc(COC(=O)Nc3ccc(C(=O)NO)cc3)ccc2c1.Cl` [Givinostat, {6-[(diethylamino)methyl]-naphthalen-2-yl}methyl[4-(hydroxycarbamoyl)phenyl]carbamate], the MTD [2] is given as 200 mg once daily (in healthy volunteers).
For `Cc1[nH]c2ccccc2c1CCNCc1ccc(/C=C/C(=O)NO)cc1` [Panobinostat, (E)-N-hydroxy-3-[4-[[2-(2-methyl-1H-indol-3-yl)ethylamino]methyl]phenyl]prop-2-enamide], the MTD ([1]; every other day) is given as 20 mg every other day.
For `CCCCc1nc2cc(/C=C/C(=O)NO)ccc2n1CCN(CC)CC` [SB939, (2E)-3-{2-butyl-1-[2-(diethylamino)ethyl]-1H-benzimidazol-5-yl}-N-hydroxyacrylamide], the MTD ([1]; once daily) is given as 60 mg once daily.
For `O=C(CCCCCCC(=O)Nc1ccccc1)NO` [Vorinostat, N-hydroxy-N′-phenyl-octanediamide], the MTD ([1]; once daily) is listed as 400 mg once daily.
In the case of `CCCC(CCC)C(=O)O` [valproic acid, 2-propylpentanoic acid], the “increase in PAI-1 production” value [3] was 30%, the “effects on plasma PAI-1” value (PAI-1 [4]) was “did not detect any effects” and the “reduction in circulating plasma PAI-1 levels” value (PAI-1 [5]) was 45%. The “reduction in circulating plasma PAI-1 levels” value (PAI-1 [5]; listed as VPA) was “about 45%”, the “circulating plasma PAI-1 level after treatment” value (PAI-1 [5]; patients with history of myocardial infarction, valproic acid 500 mg twice daily for 28 days, 19.6 ng/ml before treatment) was 11 ng/mL and the “effects on plasma PAI-1” value (PAI-1 [6]) was “did not detect any effects”. For the same compound, the “time of peak plasma concentration of valproic acid” value (PAI-1 [7]; 400 mg valproic acid enteric-coated tablet with delayed absorption, oral once daily at 11 pm for 2 weeks) was “between 3 am and 6 am”, the “lowering of plasma PAI-1 levels after the treatment” value (PAI-1 [7]; 400 mg valproic acid oral once daily at 11 pm for 2 weeks) was “approximately 30%” and the “reduction in circulating plasma PAI-1 levels” value (PAI-1 [8]; 10 healthy men aged 50-70, valproic acid 500 mg (Ergenyl Retard) twice daily for 14 days, mid-morning vs before treatment, p<0.05) was “more than 50%”. The “circulating plasma PAI-1 level after treatment” value (PAI-1 [8]; healthy men, valproic acid 500 mg twice daily for 14 days, mid-morning, 22.2 ng/ml before treatment) was 10.8 ng/mL, the “reduction of risk for recurrent atherothrombotic event” value ([9]; in addition to conventional therapy) was “approximately 30%” and the “annual absolute event rate” value ([9]; approximately 7% estimated without treatment) was “approximately 5%”.
